Test system: participants with SSc-RP
Experiment: Frequency of weekly RP attacks (all attacks; primary efficacy endpoint)
Type: in vivo, human
Conditions: for Weekly RP Attacks (All Attacks) Change from Baseline, Mean / Weekly RP Attacks (All Attacks) Change from Baseline, Median / Weekly RP Attacks (All Attacks) Percent Change from Baseline, Mean / Weekly RP Attacks (All Attacks) Percent Change from Baseline, Median / Weekly RP Attacks (All Attacks), Mean / Weekly RP Attacks (All Attacks), Median: Excluding Outliers, by Baseline RCS, ITT Part A; for Weekly RP Attacks Change from Baseline, Max / Weekly RP Attacks Change from Baseline, Mean (SD) / Weekly RP Attacks Change from Baseline, Median / Weekly RP Attacks Change from Baseline, Min / Weekly RP Attacks Change from Baseline, Q1 / Weekly RP Attacks Change from Baseline, Q3 / Weekly RP Attacks Percent Change from Baseline, Max / Weekly RP Attacks Percent Change from Baseline, Mean (SD) / Weekly RP Attacks Percent Change from Baseline, Median / Weekly RP Attacks Percent Change from Baseline, Min / Weekly RP Attacks Percent Change from Baseline, Q1 / Weekly RP Attacks Percent Change from Baseline, Q3 / Weekly RP Attacks, Max / Weekly RP Attacks, Mean (SD) / Weekly RP Attacks, Median / Weekly RP Attacks, Min / Weekly RP Attacks, Q1 / Weekly RP Attacks, Q3: all attacks, excluding outliers, tadalafil 5 mg daily
Source text: Percent change from baseline evaluation for frequency of weekly RP attacks were or will be used as the primary efficacy variable. The sponsor-developed participant-informed diary will be used to record data. Frequency of weekly RP attacks is defined as the total number of RP attacks divided by the number of days with available diary data within the last 7 days of each dosing period then multiplied by 7. Total number of RP attacks during the last 7 days of screening period divided by the number of days with available data then multiplied by 7 will be used as baseline for the analysis of all periods. The variable will be calculated as follows:
Percentage change={(weekly RP attacks for the last 7 days of each dosing period−Baseline weekly RP attacks)/Baseline weekly RP attacks}*100%.
Absolute change=weekly RP attacks for the last 7 days of each dosing period−Baseline weekly RP attacks
Percent change from baseline evaluation for frequency of weekly RP attacks was and will be the primary efficacy endpoint. Frequency of weekly RP attacks is defined as the total number of RP attacks divided by the number of days with available diary data within the last 7 days of each dosing period then multiplied by 7. Total number of RP attacks during the last 7 days of screening period divided by the number of days with available data then multiplied by 7 will be used as baseline for the analysis of all periods.
Percent change from baseline evaluation for frequency of weekly RP attacks were the primary efficacy endpoint. Data collected in the last 7 days of each dosing period were used for this analysis. Screening assessments were used as baseline for the analysis of all periods. No multiple comparison adjustment were used to control alpha for the multiple comparisons. Mixed effects model were used for analysis of the primary endpoint according to the crossover design. Other efficacy endpoints of continuous variables were analyzed using similar methodology. For nominal data, chi-square tests were applied. Generalized Estimating Equations method were used, as appropriate, for adjusting for potential confounding factors. In addition, the final analysis assessed whether in this study of severe Raynaud's disease participants, the minimally important difference, previously concluded of 14-15 points on the 100 point RCS scale had been achieved in the cilnidipine dose group. It also recorded the percentage of participants achieving a PASS (34 point difference from baseline on a 0-100 VAS) in each treatment group.

[1] = Cilnidipine 10 mg, n=1, first subgroup
[2] = Cilnidipine 20 mg (n=3), subgroup n = 2
[3] = Cilnidipine 20 mg, n=2, first subgroup
[4] = Pooled Cilnidipine 10 mg and Cilnidipine 10 mg + Tadalafil 5 mg, n=1, second subgroup
[5] = Pooled Cilnidipine 10 mg and Cilnidipine 10 mg + Tadalafil 5 mg, n=2, first subgroup
[6] = Pooled Cilnidipine 20 mg and Cilnidipine 20 mg + Tadalafil 5 mg, n=1, second subgroup
[7] = Pooled Cilnidipine 20 mg and Cilnidipine 20 mg + Tadalafil 5 mg, n=3, first subgroup
[8] = Pooled Cilnidipine (n = 7), subgroup n = 2
[9] = Pooled Cilnidipine, n=3, first subgroup
[10] = pooled cilnidipine 10 mg and 20 mg

## COCCOC(=O)C1=C(C)NC(C)=C(C(=O)OC/C=C/c2ccccc2)C1c1cccc([N+](=O)[O-])c1 (stereo not drawn) [Cilnidipine, cilnidipine]
10 mg of cilnidipine (n=3 for both doses)
  reduction in weekly frequency of typical Raynaud attacks: 28%
20 mg of cilnidipine (n=3 for both doses)
  reduction in weekly frequency of typical Raynaud attacks: 46%
[1]
  Weekly RP Attacks (All Attacks) Change from Baseline, Mean: −9.00
  Weekly RP Attacks (All Attacks) Change from Baseline, Median: −9.00
  Weekly RP Attacks (All Attacks) Percent Change from Baseline, Mean: −28.13%
  Weekly RP Attacks (All Attacks) Percent Change from Baseline, Median: −28.13%
  Weekly RP Attacks (All Attacks), Mean: 23.00
  Weekly RP Attacks (All Attacks), Median: 23.00
Cilnidipine 20 mg (n=3), subgroup n = 1
  Subgroup Baseline RCS, <3.5 baseline: <3.5 baseline −42%
[2]
  Subgroup Baseline RCS, >3.5-7.5 baseline: >3.5-7.5 baseline −43%
  Subgroup attack frequency, <10 baseline: <10 baseline −29%
  Subgroup attack frequency, >10 baseline: >10 baseline −50%
[3]
  Weekly RP Attacks (All Attacks) Change from Baseline, Mean: −6.67
  Weekly RP Attacks (All Attacks) Change from Baseline, Median: −6.67
  Weekly RP Attacks (All Attacks) Percent Change from Baseline, Mean: −45.71%
  Weekly RP Attacks (All Attacks) Percent Change from Baseline, Median: −45.71%
  Weekly RP Attacks (All Attacks), Mean: 8.00
  Weekly RP Attacks (All Attacks), Median: 8.00
Cilnidipine (20 mg) (n = 3)
  Mean % reduction of weekly attacks from baseline: 43%
  Mean weekly attacks at baseline: 12.7
  Weekly attack frequency: −43%
  Weekly attack frequency, If baseline RCS <3.5: −42%
[4]
  Weekly RP Attacks (All Attacks) Change from Baseline, Mean: −5.00
  Weekly RP Attacks (All Attacks) Change from Baseline, Median: −5.00
  Weekly RP Attacks (All Attacks) Percent Change from Baseline, Mean: −45.45%
  Weekly RP Attacks (All Attacks) Percent Change from Baseline, Median: −45.45%
  Weekly RP Attacks (All Attacks), Mean: 6.00
  Weekly RP Attacks (All Attacks), Median: 6.00
[5]
  Weekly RP Attacks (All Attacks) Change from Baseline, Mean: −6.50
  Weekly RP Attacks (All Attacks) Change from Baseline, Median: −6.50
  Weekly RP Attacks (All Attacks) Percent Change from Baseline, Mean: −36.28%
  Weekly RP Attacks (All Attacks) Percent Change from Baseline, Median: −36.28%
  Weekly RP Attacks (All Attacks), Mean: 14.00
  Weekly RP Attacks (All Attacks), Median: 14.00
[6]
  Weekly RP Attacks (All Attacks) Change from Baseline, Mean: −1.83
  Weekly RP Attacks (All Attacks) Change from Baseline, Median: −1.83
  Weekly RP Attacks (All Attacks) Percent Change from Baseline, Mean: −14.29%
  Weekly RP Attacks (All Attacks) Percent Change from Baseline, Median: −14.29%
  Weekly RP Attacks (All Attacks), Mean: 11.00
  Weekly RP Attacks (All Attacks), Median: 11.00
[7]
  Weekly RP Attacks (All Attacks) Change from Baseline, Mean: −5.78
  Weekly RP Attacks (All Attacks) Change from Baseline, Median: −4.33
  Weekly RP Attacks (All Attacks) Percent Change from Baseline, Mean: −37.49%
  Weekly RP Attacks (All Attacks) Percent Change from Baseline, Median: −45.00%
  Weekly RP Attacks (All Attacks), Mean: 10.33
  Weekly RP Attacks (All Attacks), Median: 11.00
Pooled Cilnidipine (n = 7)
  Weekly attack frequency: −41%
  Weekly attack frequency, If baseline RCS <3.5: −27%
Pooled Cilnidipine (n = 7), subgroup n = 1
  Subgroup Baseline RCS, 3.5-7.5 baseline: 3.5-7.5 baseline −86%
[8]
  Subgroup attack frequency, <10 baseline: <10 baseline −55%
  Subgroup attack frequency, >10 baseline: >10 baseline −28%
Pooled Cilnidipine (n = 7), subgroup n = 3
  Subgroup Baseline RCS, <3.5 baseline: <3.5 baseline −27%
[9]
  Weekly RP Attacks (All Attacks) Change from Baseline, Mean: −7.44
  Weekly RP Attacks (All Attacks) Change from Baseline, Median: −9.00
  Weekly RP Attacks (All Attacks) Percent Change from Baseline, Mean: −39.85%
  Weekly RP Attacks (All Attacks) Percent Change from Baseline, Median: −45.00%
  Weekly RP Attacks (All Attacks), Mean: 13.00
  Weekly RP Attacks (All Attacks), Median: 11.00
Cilnidipine 10 mg
  Weekly RP Attacks Change from Baseline, Max: −9.0, −9.0
  Weekly RP Attacks Change from Baseline, Mean (SD): −9.00
  Weekly RP Attacks Change from Baseline, Median: −9.00
  Weekly RP Attacks Change from Baseline, Min: −9.0, −9.0
  Weekly RP Attacks Change from Baseline, Q1: −9.00, −9.00
  Weekly RP Attacks Change from Baseline, Q3: −9.00, −9.00
  Weekly RP Attacks Percent Change from Baseline, Max: −28.1, −28.1%
  Weekly RP Attacks Percent Change from Baseline, Mean (SD): −28.13%
  Weekly RP Attacks Percent Change from Baseline, Median: −28.13%
  Weekly RP Attacks Percent Change from Baseline, Min: −28.1, −28.1%
  Weekly RP Attacks Percent Change from Baseline, Q1: −28.13, −28.13%
  Weekly RP Attacks Percent Change from Baseline, Q3: −28.13, −28.13%
  Weekly RP Attacks, Max: 23.0, 23.0
  Weekly RP Attacks, Mean (SD): 23.00
  Weekly RP Attacks, Median: 23.00
  Weekly RP Attacks, Min: 23.0, 23.0
  Weekly RP Attacks, Q1: 23.00, 23.00
  Weekly RP Attacks, Q3: 23.00, 23.00
Cilnidipine 20 mg
  Weekly RP Attacks Change from Baseline, Max: −4.3
  Weekly RP Attacks Change from Baseline, Mean (SD): −6.67 (3.300)
  Weekly RP Attacks Change from Baseline, Median: −6.67
  Weekly RP Attacks Change from Baseline, Min: −9.0
  Weekly RP Attacks Change from Baseline, Q1: −9.00
  Weekly RP Attacks Change from Baseline, Q3: −4.33
  Weekly RP Attacks Percent Change from Baseline, Max: −45.0%
  Weekly RP Attacks Percent Change from Baseline, Mean (SD): −45.71 (1.010) Percent
  Weekly RP Attacks Percent Change from Baseline, Median: −45.71%
  Weekly RP Attacks Percent Change from Baseline, Min: −46.4%
  Weekly RP Attacks Percent Change from Baseline, Q1: −46.43%
  Weekly RP Attacks Percent Change from Baseline, Q3: −45.00%
  Weekly RP Attacks, Max: 11.0
  Weekly RP Attacks, Mean (SD): 8.00 (4.243)
  Weekly RP Attacks, Median: 8.00
  Weekly RP Attacks, Min: 5.0
  Weekly RP Attacks, Q1: 5.00
  Weekly RP Attacks, Q3: 11.00
[10]
  Weekly RP Attacks Change from Baseline, Max: −4.3
  Weekly RP Attacks Change from Baseline, Mean (SD): −7.44 (2.694)
  Weekly RP Attacks Change from Baseline, Median: −9.00
  Weekly RP Attacks Change from Baseline, Min: −9.0
  Weekly RP Attacks Change from Baseline, Q1: −9.00
  Weekly RP Attacks Change from Baseline, Q3: −4.33
  Weekly RP Attacks Percent Change from Baseline, Max: −28.1%
  Weekly RP Attacks Percent Change from Baseline, Mean (SD): −39.85 (10.180) Percent
  Weekly RP Attacks Percent Change from Baseline, Median: −45.00%
  Weekly RP Attacks Percent Change from Baseline, Min: −46.4%
  Weekly RP Attacks Percent Change from Baseline, Q1: −46.43%
  Weekly RP Attacks Percent Change from Baseline, Q3: −28.13%
  Weekly RP Attacks, Max: 23.0
  Weekly RP Attacks, Mean (SD): 13.00 (9.165)
  Weekly RP Attacks, Median: 11.00
  Weekly RP Attacks, Min: 5.0
  Weekly RP Attacks, Q1: 5.00
